Assay results: patent US8222440B2, “Compounds and methods for the treatment of cancer” (The Texas A&M University System, priority 2006, dated 2012)

Experiments:
HL-60 leukemia cells = assay: Cytotoxicity assay: proliferation of HL-60 cells by 3H-thymidine uptake; assay type: cell-based; conditions: Homo sapiens, doxorubicin positive control at 1 μM on the plate of the test compound, read-out: % Inhibition of DOX (1 μM)
mice = conditions: intraperitoneal administration (route stated for arsenic trioxide); cited from earlier work

| Molecule | inhibition at 1 µM (HL-60 leukemia cells) [%] | LD50 (a dose at which 50% of animals die due to acute toxicity) (mice) [mg/kg] |
| --- | --- | --- |
| COc1cccc2c1C(=O)c1c(O)c3c(c(O)c1C2=O)C[C@@](O)(C(=O)CO)C[C@@H]3O[C@H]1C[C@H](N)[C@H](O)[C@H](C)O1 [DOX, doxorubicin] | 100 | – |
| arsenic trioxide | – | 10 |
